Literature values, collected in patent US8575311B2, “Collagen peptide conjugates and uses therefor” (Purdue Research Foundation, priority 2008, dated 2013).

Conditions: comparison value, conditions not given

Tm of comparison peptide: 67 °C
Substance: (Pro-Hyp-Gly)9
